In patent publication US9156824B2, “CDC7 inhibitors” (Eli Lilly and Company, priority 2013, dated 2015):
Like-named read-outs stand apart in the source and are kept apart here.

Assays:
[1] = system: phosphorylated MCM2 at Serine 53 (pMCM2-S53) in H1299 cells; experiment: Acumen imaging assay for detection of phosphorylated MCM2 in H1299 cells; assay type: cell-based; settings: 4 hours treatment, read-out: IC50, inhibition of pMCM2-S53
Experimental: The Acumen® eX3 is used to determine the effect of compounds on the formation of endogenous phosphorylated MCM2 at Serine 53 (pMCM2-S53). Phosphorylation of MCM2 by CDC7 is determined using specific anti-pMCM2-S53 antibody and quantified with fluorescent tagged secondary antibodies by Acumen® eX3 to monitor CDC7 activity in cells. Phosphorylation of MCM2 at Serine 53 is known to be correlated to CDC7 inhibition.
H1299 cells (ATCC #CRL-5803) are maintained in RPMI-1640 (Hyclone SH30809.01) growth medium supplemented with 10% FBS. Cells are harvested using standard cell culture procedures and then counted using Vi-Cell XR Cell Viability Analyzer (Beckman Counter). 3000-6000 H1299 cells in 100 μL of growth medium are plated into each well of Biocoat Poly-D-Lysine 96-well black/clear plate with flat bottom BioCoat™ Multiwell (Becton Dickinson) cell culture plates 356640 and incubated overnight at 37° C., 5% CO2.
Cells are treated with the test compound (50 μL/well) diluted in medium containing 0.6% DMSO and incubated for 4 hours at 37° C. To each well is added 7.4% formaldehyde (150 μL) diluted with PBS from 37% formaldehyde stock and the plates are incubated at room temperature for 30 minutes. Formaldehyde is removed and cold methanol (100 μL) is added. The plates are incubated for 20 minutes at 4° C. to permeabilize the cells. Plates are washed 3× with 100 μL/well of PBS. […] The plates are sealed with black seal and are read on the Acumen® eX3 (TTP LABTECH) using optical filter 500-530 nanometer and 575-640 nanometer for Alexa Fluor 488 and propidium iodide, respectively. The number of pMCM2-S53 positive cells is normalized to total cells for each well and are calculated as percent inhibition relative to on-plate controls. […]

CDC7/DBF4 = biological target: T1, CDC7/DBF4 (Homo sapiens, UniProt O00311); experiment: CDC7/DBF4 in vitro enzyme assay (Transcreener Kinase ADP-FP); assay type: biochemical; settings: ATP 5 μM, MCM2 400 nM, 60 minutes, read-out: IC50 against CDC7/DBF4 kinase
T1 construct: host or cells: insect cells
T1 sequence (O00311 whole entry): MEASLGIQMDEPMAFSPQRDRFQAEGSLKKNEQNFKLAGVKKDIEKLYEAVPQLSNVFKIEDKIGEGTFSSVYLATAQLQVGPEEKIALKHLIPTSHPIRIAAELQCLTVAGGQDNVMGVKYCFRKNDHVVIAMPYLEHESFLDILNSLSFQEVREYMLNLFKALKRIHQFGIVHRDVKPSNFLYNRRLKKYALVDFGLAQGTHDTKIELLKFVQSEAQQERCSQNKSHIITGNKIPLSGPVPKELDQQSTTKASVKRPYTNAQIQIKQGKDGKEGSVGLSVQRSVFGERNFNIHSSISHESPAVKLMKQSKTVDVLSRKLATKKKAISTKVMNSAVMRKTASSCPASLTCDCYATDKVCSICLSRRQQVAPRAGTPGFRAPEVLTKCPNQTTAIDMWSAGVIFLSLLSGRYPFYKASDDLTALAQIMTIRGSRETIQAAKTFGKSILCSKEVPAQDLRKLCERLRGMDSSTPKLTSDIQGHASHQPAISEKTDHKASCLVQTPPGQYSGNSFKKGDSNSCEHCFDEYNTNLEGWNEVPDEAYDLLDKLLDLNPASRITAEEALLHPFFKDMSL
T1 sequence (Q9UBU7 whole entry partner): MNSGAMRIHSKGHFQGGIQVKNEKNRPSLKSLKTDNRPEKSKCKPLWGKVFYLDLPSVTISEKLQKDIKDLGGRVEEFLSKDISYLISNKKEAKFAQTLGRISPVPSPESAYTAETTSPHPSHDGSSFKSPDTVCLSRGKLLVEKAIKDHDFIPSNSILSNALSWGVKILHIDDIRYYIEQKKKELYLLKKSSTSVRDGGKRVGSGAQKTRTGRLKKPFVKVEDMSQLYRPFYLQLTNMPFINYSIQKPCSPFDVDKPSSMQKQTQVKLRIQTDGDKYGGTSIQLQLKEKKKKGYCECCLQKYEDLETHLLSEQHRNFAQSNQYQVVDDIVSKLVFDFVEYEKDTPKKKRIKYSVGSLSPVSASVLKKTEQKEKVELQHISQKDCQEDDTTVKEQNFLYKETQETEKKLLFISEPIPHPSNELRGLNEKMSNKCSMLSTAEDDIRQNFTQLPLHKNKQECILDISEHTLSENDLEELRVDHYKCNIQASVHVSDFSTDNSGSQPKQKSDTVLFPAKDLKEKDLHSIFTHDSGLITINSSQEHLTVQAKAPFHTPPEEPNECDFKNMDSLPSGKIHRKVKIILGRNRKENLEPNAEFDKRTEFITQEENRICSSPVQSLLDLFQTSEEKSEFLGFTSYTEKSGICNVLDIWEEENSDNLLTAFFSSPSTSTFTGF
Experimental: The Transcreener™ Kinase ADP-FP assay is used to determine compound IC50 values against CDC7/DBF4 kinase. The Kinase ADP-FP assay assesses the activity of CDC7/DBF4 in the presence of compound inhibitors by measuring the concentration of ADP formed in a kinase reaction. The kinase reaction is performed using a 25 microliter reaction volume in 96 well assay plate. For the ADP-FP assay, the reagents are added to obtain the final reaction conditions of HEPES (25 mM) pH 7.5, 0.03% Triton® X-100, magnesium chloride (10 mM), DTT (1 mM), MCM2 (400 nM) (Amino Acid 1-209, a physiological substrate of CDC7/DBF4), spermine (4 mM), CDC7/DBF4 (2,640 ng/mL) (recombinant human CDC7/DBF4 expressed in insect cells), 4% dimethyl sulfoxide and serial dilutions of compound (diluted 1:3 from 20,000 nM to 1 nM). Enzyme and substrate is added to compound followed by ATP to 5 μM to start the reaction. The plates are incubated at room temperature for 60 minutes.
For the ADP-FP format add 25 microliters of a quench detection reagent containing HEPES (52 mM) pH 7.5, EDTA (20 mM), sodium chloride (0.4 M), polyoxyethyleneglycol dodecyl ether (0.02%) (BRIJ-35™), anti-ADP antibody (10 μg/mL), and ADP (4 nM) Transcreener® ADP Alexa Fluor® 633 tracer to quench the reaction. The plates are incubated for 1 hour, and then read in a Wallac EnVision™ 2104 Multilabel Reader (PerkinElmer) in Fluorescence Polarization mode using polarizing filters of Ex620nm and Em688nm wavelength. Millipolarization (mP) raw data is converted to micromolar ADP using a prepared ADP/ATP standard curve starting at 5 μM ADP 1:1 serial dilution in reaction buffer to 0.0025 μM ADP. The IC50 value for each compound is derived using percent inhibition data calculated from the μM ADP reaction data relative to on-plate controls (DMSO versus 100 mM EDTA inhibited enzyme controls). The percent inhibition and ten-point compound concentration data is then fitted to a four-parameter logistic equation.

[2] = system: panel of 114 cancer cell lines of colorectal, breast, lung, and blood (leukemia) origin; experiment: In vitro antiproliferative assay (cell number counting); assay type: cell-based; settings: for Number of Cell Lines that Die Rapidly: within 2 doubling times
Experimental: In vitro anti-proliferative activity of Example 2 is determined by cell number counting assays against a panel of 114 cancer cell lines of colorectal, breast, lung, and blood (leukemia) origin obtained from ATCC, HSRRB, RIKEN or ECACC. The cells are cultured and maintained in media per supplier's instructions. Cell doubling time of each cell line is determined and all cell lines are free of mycoplasma contamination. Cells are cultured overnight in 96-well plates before compound addition for anti-proliferative activity assays. Optimal cell seeding density is carefully evaluated for each cell lines by seeding the cell culture with 4 different cell densities in 100 μL media and taking into consideration of their doubling time and cell sizes. The seeding density that gave about 90% confluence at end of two doubling times is then selected for compound testing. Staurosporine is used with 1:3 dilution as a reference. Example 2 is prepared as a 4 mM DMSO stock and diluted in culture media in a 1:2 ratio. 50 μL of the media containing the compound is added to each well of the overnight 96-well culture to produce the desired final concentrations of 20, 10, 5, 2.5, 1.25, 0.625, 0.312, 0.156, 0.078 μM and DMSO control. Each treatment concentration has duplicate wells. The cells are further cultured for two doubling times in the presence of the compound. At end of treatment time, cells are first examined under a microscope for morphological changes, such as cell death or apparent cell size increases. Cells in each duplicate well are collected separately. Adherent cells are harvested by tripsinization first. Harvested cells are re-suspended in growth media and are counted using a cell counter.

[3] = system: pMCM2-S40/41 in Colo-205 xenograft tumors; experiment: CDC7 in vivo target inhibition (IVTI) on pMCM2-S40/41 with Colo-205 xenograft tumor model; design: species or system mice; settings: 4 hours following an oral dose
Experimental: Human colo-205 colorectal cancer cells (ATCC#CCL-222) are maintained in RPMI 1640 medium containing 10% FBS. Log phase growing cells are harvested, washed, and resuspended in a 1:1 mixture of serum free medium and Matrigel™ (Becton Dickinson). They are injected subcutaneously at 5×10^6 cells/animal/site in the rear flank as subcutaneous tumor xenograft models in balb/c (nu/nu) female mice (6-8 weeks with body weight of 20 to 25 gram/mouse). Animals are randomized at the mean tumor volume of 150 to 250 mm^3 mice, (v=1×w×0.536 where 1=larger of measured diameter and w=smaller of perpendicular diameter). Compound is administered by P.O. in a standard 1% HEC w/v, P80 0.25% v/v, Antifoam 1510-US 0.05% v/v formulation. […] Protein concentration from tumor lysates is determined by BCA assay (Thermo Scientific) and 5 to 10 μg of protein is separated by standard SDS-PAGE (BioRad Criterion™ gel) or (Invitrogen ePage™ gel). […] Levels of pMCM2-S40/41 are determined and quantified by either Licor or FUJI imagers and normalized to the total GAPDH level. The percent change inhibition of pMCM2-S40/41 band intensity is calculated using the average intensity of vehicle treated control tumors normalized to the GAPDH as the maximum signal. […]

CC1(c2ncncc2F)NC(=O)c2cc(-c3cn[nH]c3)ccc21 (single isomer, unassigned; isomer 2) [Example 2, 3-(5-Fluoropyrimidin-4-yl)-3-methyl-6-(1H-pyrazol-4-yl)isoindolin-1-one, Isomer 2]
IC50 ([1]; Homo sapiens, NCI-H1299, 4 h): 0.261 µM
IC50 (CDC7/DBF4): 0.0037 µM
Number of Cell Lines that Die Rapidly ([2]; Breast, of 17 cell lines): 0
Number of Cell Lines that Die Rapidly ([2]; Colorectal, of 29 cell lines): 4
Number of Cell Lines that Die Rapidly ([2]; Leukemia, of 23 cell lines): 5
Number of Cell Lines that Die Rapidly ([2]; Lung, of 39 cell lines): 2
Number of Cell Lines that Die Rapidly ([2]; Others, of 6 cell lines): 1
Number of Cell Lines that Die Rapidly ([2]; Total, of 114 cell lines): 12
IC50 ([2]; majority of the 114 cancer cell lines tested, read-out: anti-proliferative activity, pharmacologically relevant concentrations): < 8 µM
cancer cell lines showing particular sensitivity (massive cell death) ([2]; share of the 114 cell lines, within 2 doubling time treatment periods): about 10%

CC1(c2ncncc2F)NC(=O)c2cc(-c3cn[nH]c3)ccc21 (single isomer, unassigned) [Example 3, 3-(5-Fluoropyrimidin-4-yl)-3-methyl-6-(1H-pyrazol-4-yl)isoindolin-1-one]
IC50 [1]: 0.29 µM
IC50 (CDC7/DBF4): 0.0045 µM
TEC70 (plasma concentration for 70% inhibition of pMCM2 normalized to GAPDH) [3]: 1.8 μM
TED70 (dose for 70% inhibition of pMCM2 normalized to GAPDH) [3]: 2.6 mg/kg
